According to US9637529B2, “Medicament for atrophy treatment or increasing cell growth” (SIMU TRADE CONSULTING GMBH & CO. LEASING KG, priority 2012, dated 2017):
Entries after “also recorded” stand apart in the source; their conditions may differ.

Legend:
[1] = test system: rat skeletal muscle cells (L6); assay: AlamarBlue proliferation assay, L6 cells; assay type: cell-based
Method: FIG. 2: Effect of SERF2 on Proliferation of rat skeletal muscle cells (L6). 1×10^4 L6 cells were seeded per well containing 100 μl growth medium. Cells were incubated over night at +37° C., 5% v/v CO^2 and humidified atmosphere. Prior performing the assay, viability of cells was checked under the microscope. Cells were washed three times with 100 μl DPBS per well. SERF2 was diluted […]) in DMEM and 100 μl/well were added to the cells. Finally, cells were incubated at +37° C. for various time points. Subsequently 10 μl/well AlamarBlue™ reagent (Invitrogen) was added. Plates were incubated for one hour at +37° C. Fluorescence (Ex. 570 nm, Em. 585 nm) was measured using a Varioskan Flash multi-plate reader (Thermo Scientific). Obtained Data were evaluated using Microsoft Excel and Graph Pad Prism V4.
(§1) FIG. 6: Kinetics of the Effect of SERF2 on Proliferation of rat skeletal muscle cells (L6). Cells stimulated with SERF2 (green line) responded with proliferation and reached a max. proliferation rate after 6 days. Proliferation assay was performed essentially as in FIG. 2. Incubation times were 24, 48, 72 and 144 hrs, the SERF2 concentration added was 5 μg/ml.
Rat derived embryonic cardiomyocytes H9c2 (ATTC CRL-1446) and embryonic skeletal muscle cells L6 (ATTC CRL-1458) were cultured in Dulbecco's Modified Eagle Medium high glucose (DMEM, Sigma Aldrich) containing 10% v/v fetal calf serum (FCS, PAA) and 1% v/v Penicillin/Streptamycin (Gibco). Cells were grown in 80 cm2 cell culture flasks (NUNC) using 15 ml growth medium. Both cell lines were incubated under humidified atmosphere at +37° C. and 5% v/v CO^2. Cells were splitted when a confluency of approximately 90% was reached. […] Cell number and viability were determined by trypanblue exclusion performed by using an automated cell analyzer (CEDEX, Innovatis). […]
(§2) Proliferation was measured using the AlamarBlue™ assay according to the manufacturer's protocol. […] Fluorescence (Ex. 570 nm, Em. 585 nm) was measured using a Varioskan Flash multi-plate reader (Thermo Scientific). Data were evaluated using Microsoft Excel and GraphPad Prism V4.

[2] = test system: rat cardiomyocytes (H9c2); assay: AlamarBlue proliferation assay, H9c2 cells; assay type: cell-based
Method: FIG. 3: Effect of SERF2 on Proliferation of H9c2 cells is dose-dependent. Proliferation assay was performed essentially as in FIG. 2. Incubation time was 24 hrs, added SERF2 concentrations ranged from 20 to 1.25 μg/ml.
as §1, with “5:” for “6:”, “cardiomyocytes (H9c2).” for “skeletal muscle cells (L6).”, “reached” for “reached a”
Rat derived embryonic cardiomyocytes H9c2 (ATTC CRL-1446) and embryonic skeletal muscle cells L6 (ATTC CRL-1458) were cultured in Dulbecco's Modified Eagle Medium high glucose (DMEM, Sigma Aldrich) containing 10% v/v fetal calf serum (FCS, PAA) and 1% v/v Penicillin/Streptamycin (Gibco). Cells were grown in 80 cm2 cell culture flasks (NUNC) using 15 ml growth medium. Both cell lines were incubated under humidified atmosphere at +37° C. and 5% v/v CO^2. Cells were splitted when a confluency of approximately 90% was reached. Usually a splitting ratio of 1:5 or 1:10 was applied. For this purpose, supernatant was removed and cells were washed using 10 ml Dulbecco's Phosphate Buffered Saline (DPBS, Gibco). Cells were harvested by addition of 3 ml Trypsin/EDTA (Gibco) followed by an incubation of 5 to 10 min at +37° C. Successful detachment of cells was checked under the microscope (IMT-2, Olympus) and 7 ml growth medium were added. Cell number and viability were determined by trypanblue exclusion performed by using an automated cell analyzer (CEDEX, Innovatis). For this, 950 μl DPBS and 50 μl cell-suspension were mixed and used for analysis.
as §2, with “protocol. Briefly, 1×10^4 cells were seeded per well containing 100 μl growth medium.” for “protocol.”

[3] = test system: 711-3 cells; assay: H2O2-induced apoptosis, caspase-3 ELISA, 711-3; assay type: cell-based, human; details: serum-free medium with or without H2O2, SERF2 5 μg/ml, 9.5 hours
Method: 711-3 cells were incubated under different culture conditions: serum-free medium (dark blue), serum-free medium+SERF2 (5 μg/ml; lime) serum-free medium+SERF2+H2O2 (green) and serum-free medium+H2O2 (red). After 9.5 hours culture supernatants were analyzed by an ELISA-technique for caspase-3 expression levels. Results are expressed as pNA in pmol/μl.
Caspase-3 is a member of the cysteine aspartic acid-specific protease family and is a marker of an early event in apoptosis. Caspase-3 expression was measured using a commercially available kit. Briefly, culture supernatants of cells undergoing apoptosis after different treatments were harvested and incubated with a substrate labeled with p-nitroaniline (pNA), which produces a yellow color when it is cleaved by caspase-3. The amount of produced yellow color is proportional to the caspase-3 activity, which can be determined by an ELISA reader at 405 nm (Promega). The assay was performed essentially as described by the manufacturer (instruction manual of CaspACE™ Assay System, Promega).
The question was asked whether SERF2 has an effect on growth factor deprivation- or stress-induced apoptosis. The experimental protocol included addition of Hydrogen peroxide (H2O2), which is known to cause cellular stress and consequently apoptotic death in doses below 200 μM (Cox A., Carcinogenesis. 2007, Vol. 28, 10). […]

[4] = test system: zebrafish; assay: Zebrafish blood cell concentration; assay type: in vivo
Method: FIG. 14: Changes in blood cell concentrations in zebrafish incubated in different doses of SERF2. Shown are mean values (blood cells/nl) and SEM. Asterisks indicate significant differences to control animals.
FIG. 17: Detection of blood cells (green arrows) in 7 dpf zebrafish (top image=control, lower image=SERF2-treated). To determine blood cell concentration the number of detected cells were divided by vessel volume.
SERF2 was administered by a) injection of the native protein into the yolk sac of 3 day post fertilization (dpf) animals and freshly fertilized eggs (2-8 cell stage) in various protein concentrations or chronic incubation with the native protein to supply it via diffusion. For in deep analysis of angiogenic effects flk-1 transgenic animals with gfp (green fluorescent protein) labelled endothelium were used. For all other experiments wildtype (wdt) animals were used.
A cast of the vascular bed was obtained by accumulation of the shifting vectors of moving erythrocytes from a number of subsequent difference pictures, as described previously (by Schwerte et al., supra). In parallel to this flk-1 transgenic animals, which show green fluorescing endothelium, were imaged.

[5] = SERF2 5 μg/ml, incubation 24, 48, 72 and 144 hrs

Substance: SERF2: Small EDRK-rich factor 2, mature protein of 59 amino acids (SEQ ID NO: 1) (MTRGNQRELARQKNMKKQSDSVKGKRRDDGLSAAARKQRDSEIMQQKQKKANEKKEEPK; homo sapiens)
- proliferative effect on L6 rat skeletal muscle cells ([1]; AlamarBlue, single treatment, read daily until day six): proliferative effect on L6 rat skeletal muscle cells in a dose- and time-dependent manner
- time to max. proliferation rate, L6 [1, 5]: 6 days
- time of maximum proliferative effect, L6 ([1]; incubation time): three to six
- proliferative effect on H9c2 cells ([2]; 24 h treatment, SERF2 20 to 1.25 μg/ml): proliferative effect in a dose-dependent manner
- SERF2 concentration at which proliferative effect peaks, H9c2 ([2]; AlamarBlue): 5 µg/mL
- time to max. proliferation rate, H9c2 [2, 5]: 6 days
- apoptosis (caspase-3 levels) in 711-3 cells [3]: markedly reduced apoptosis; also recorded: alleviates apoptosis
- blood cell concentrations by treatment group ([4]; 7 dpf, incubation and injection routes): all but one treatment group show significantly increased blood cell concentrations
- increase in blood cell concentration compared to controls ([4]; zebrafish, different doses of SERF2): 50 to 100%
